From ChEMBL document CHEMBL6103645, “Modular Synthesis of Bioactive Selenoheterocycles for Efficient Cancer Therapy via Electrochemical Selenylation/Cyclization” (J Med Chem, 2025)
The source made the active and inactive calls. The calls are words filed in the database; no cut-off is given here.

Columns and labels:
[1] = tested on: NCI-H460; experiment: Anti-tumor activity against human NCI-H460 cells assessed as cell viability incubated for 48 hrs by CCK-8 assay; assay type: functional, cell-based; details: NCI-H460, 48 h
[2] = Antiproliferative activity against rat PA-III cells incubated for 24 hrs by MTT assay; assay type: functional, cell-based
[3] = tested on: PC-3M; experiment: Antiproliferative activity against human PC-3M cells incubated for 24 hrs by MTT assay; assay type: functional, cell-based
[4] = tested on: MCF7; experiment: Anti-tumor activity against human MCF7 cells assessed as cell viability incubated for 48 hrs by CCK-8 assay; assay type: functional, cell-based
[5] = tested on: NCI-H460; experiment: Upregulation of gamma-H2AX expression in human NCI-H460 cells by Western blot analysis; assay type: functional, cell-based
[6] = Hemolytic activity in BALB/c mouse Red blood cells assessed as effect on morphological structure at 10 to 100 uM incubated for 2 hrs; assay type: toxicity, cell-based; details: erythrocyte, dose 10-100 µM
[7] = tested on: NCI-H460; experiment: Inhibition of epithelial mesenchymal transition in human NCI-H460 cells assessed as increase in E-cadherin protein expression by Western blotting analysis; assay type: functional, cell-based
[8] = tested on: HT-29; experiment: Anti-tumor activity against human HT-29 cells assessed as cell viability incubated for 48 hrs by CCK-8 assay; assay type: functional, cell-based
[9] = tested on: NCI-H460; experiment: Induction of apoptosis in human NCI-H460 cells assessed as increase in caspase-3 level at 500 nM incubated for 24 hrs by Western blot analysis; assay type: functional, cell-based
[10] = tested on: NCI-H460; experiment: Inhibition of cell invasion in human NCI-H460 cells assessed as decrease in number of invading cells at 500 nM incubated for 48 hrs by transwell assay; assay type: functional, cell-based
[11] = tested on: NCI-H460; experiment: Induction of apoptosis in human NCI-H460 cells assessed as apoptosis rate at 500 nM incubated for 24 hrs by annexin V-FITC/PI staining based flow cytometry analysis relative to control; assay type: functional
[12] = tested on: NCI-H460; experiment: Induction of DNA damage in human NCI-H460 cells assessed as increase in gammaH2AX positive cells by immunofluorescence analysis; assay type: functional, cell-based
[13] = tested on: HeLa; experiment: Anti-tumor activity against human HeLa cells assessed as cell viability incubated for 48 hrs by CCK-8 assay; assay type: functional, cell-based
[14] = tested on: NCI-H460; experiment: Inhibition of colony formation in human NCI-H460 cells assessed as reduction in colony formation rate upto 12.5 uM incubated for 14 days by crystal violet staining based analysis; assay type: functional, cell-based; details: time 14.0 day
[15] = Hemolytic activity in BALB/c mouse Red blood cells assessed as hemolysis at 10 to 100 uM incubated for 2 hrs; assay type: toxicity, cell-based, Erythrocyte; details: dose 10-100 µM, read-out: Activity
[16] = tested on: NCI-H460; experiment: Inhibition of epithelial mesenchymal transition in human NCI-H460 cells assessed as decrease in N-cadherin protein expression by Western blotting analysis; assay type: functional, cell-based
[17] = tested on: NCI-H460; experiment: Induction of DNA damage in human NCI-H460 cells assessed as increase in gammaH2AX positive cells by DAPI staining based confocal laser scanning microscopic analysis; assay type: functional, cell-based
[18] = tested on: NCI-H460; experiment: Induction of apoptosis in human NCI-H460 cells assessed as downregulation of Bcl2 expression at 500 nM incubated for 24 hrs by Western blot analysis; assay type: functional, cell-based
[19] = tested on: NCI-H460; experiment: Induction of apoptosis in human NCI-H460 cells assessed as increase in BAX level at 500 nM incubated for 24 hrs by Western blot analysis; assay type: functional, cell-based
[20] = tested on: NCI-H460; experiment: Anti-migratory activity against human NCI-H460 cells assessed as inhibition of cell migration at 500 nM measured for 48 hrs by wound healing assay; assay type: functional, cell-based
[21] = Toxicity in male athymic nude mouse assessed as alveolar wall hyperplasia at 10 mg/kg, iv administered every 2 days and measured after 2 weeks by H and E staining based analysis; assay type: organism-based; details: in vivo, 336 h
[22] = tested on: NCI-H460; experiment: Antitumor activity against human NCI-H460 cells xenografted in athymic nude mouse assessed as change in tumor volume at 10 mg/kg, iv administered every 2 days and measured after 2 weeks; assay type: functional, organism-based
[23] = tested on: NCI-H460; experiment: Antitumor activity against human NCI-H460 cells xenografted in athymic nude mouse assessed as tumor growth inhibition at 10 mg/kg, iv administered every 2 days and measured after 2 weeks; assay type: functional; details: NCI-H460, 336 h, read-out: TGI
[24] = tested on: NCI-H460; experiment: Antitumor activity against human NCI-H460 cells xenografted in athymic nude mouse assessed as change in tumor weight at 10 mg/kg, iv administered every 2 days and measured after 2 weeks; assay type: functional, organism-based

Row | SMILES | IC50 [1] [µM] | other results
1 | COc1ccc([Se]c2c(-c3ccccc3)ncc3cc(C)ccc23)cc1 | 16.6 | 
2 | CN(C)c1ccc([Se]c2c(-c3ccccc3)ncc3ccccc23)cc1 | > 100 | 
3 | COc1cccc([Se]c2c(-c3ccccc3)ncc3ccccc23)c1 | 56.5 | 
4 | O=P1(N(CCCl)CCCl)NCCCO1 (configuration not stated) [CYCLOPHOSPHAMIDE ANHYDROUS] | 114 | 
5 | COc1ccc([Se]c2c(-c3ccccc3)ncc3sccc23)cc1 | 33.6 | 
6 | c1ccc([Se]c2c(-c3ccccc3)ncc3cccnc23)cc1 | 42.3 | 
7 | COc1ccc([Se]c2c(-c3ccccc3)ncc3cc(F)ccc23)cc1 | 39 | 
8 | Clc1ccc([Se]c2c(-c3ccccc3)ncc3ccccc23)cc1 | 82 | 
9 | N#C[Se]Cc1cc(-c2ccccc2)n(-c2ccc(S(N)(=O)=O)cc2)n1 |  | IC50 [2]: 5 µM
10 | Cc1ccc(-c2cc(C(F)(F)F)nn2-c2ccc(S(N)(=O)=O)cc2)cc1 [CELECOXIB] |  | IC50 [3]: > 20 µM; IC50 [2]: > 20 µM
11 | COc1ccc([Se]c2c(-c3ccccc3)ncc3ccc(OC)cc23)cc1 | 5.9 | Activity [4]: inactive; Activity [5]: Active; Activity [6]: Non-toxic; inhibition [7]: Active; Activity [8]: inactive; Activity [9]: Active; inhibition [10]: Active; Activity [11]: 31.5%; Activity [12]: Active; Activity [13]: inactive; inhibition [14]: Active; hemolysis at 2 h, 100 µM [15]: < 1%; N-cadherin expression decrease (qualitative activity) [16]: Active; Activity [17]: Active; Activity [18]: Active; Activity [19]: Active; Activity [20]: Active
12 | c1ccc([Se]c2c(-c3c4ccccc4c(-c4ncc5ccccc5c4[Se]c4ccccc4)c4ccccc34)ncc3ccccc23)cc1 | > 100 | 
13 | Clc1cccc([Se]c2c(-c3ccccc3)ncc3ccccc23)c1 | 56.7 | 
14 | c1ccc([Se]c2c(-c3ccc(-c4ccccc4)cc3)ncc3ccccc23)cc1 | > 100 | 
15 | FC(F)(F)c1ccc([Se]c2c(-c3ccccc3)ncc3ccccc23)cc1 | 53.6 | 
16 | Cc1ccc(-c2ncc3ccccc3c2[Se]c2ccccc2)cc1 | > 100 | 
17 | c1ccc([Se]c2c(-c3ccc(-c4ncc5ccccc5c4[Se]c4ccccc4)cc3)ncc3ccccc23)cc1 | > 100 | 
18 | COc1ccc([Se]c2c(-c3ccc(Cl)cc3)ncc3ccccc23)cc1 | 77.3 | 
19 | N#Cc1ccc([Se]c2c(-c3ccccc3)ncc3ccccc23)cc1 | > 100 | 
20 | Cc1ccccc1[Se]c1c(-c2ccccc2)ncc2ccccc12 | 61.6 | 
21 | c1ccc([Se]c2c(-c3ccsc3)ncc3ccccc23)cc1 | > 100 | 
22 | FC(F)(F)c1ccccc1[Se]c1c(-c2ccccc2)ncc2ccccc12 | 68 | 
23 | COc1ccc([Se]c2c(-c3ccccc3)ncc3cc(OC)ccc23)cc1 | 8.58 | 

Row | SMILES | IC50 [1] [µM] | other results
24 | c1ccc([Se]c2c(C3CC3)ncc3ccccc23)cc1 | > 100 | 
25 | N#Cc1cccc([Se]c2c(-c3ccccc3)ncc3ccccc23)c1 | 68 | 
26 | c1ccc([Se]c2c(-c3ccc(-c4cc(-c5ccc(-c6ncc7ccccc7c6[Se]c6ccccc6)cc5)cc(-c5ccc(-c6ncc7ccccc7c6[Se]c6ccccc6)cc5)c4)cc3)ncc3ccccc23)cc1 | > 100 | 
27 | CCCCc1ncc2ccccc2c1[Se]c1ccccc1 | > 100 | 
28 | Clc1ccc2c([Se]c3ccccc3)c(-c3ccccc3)ncc2c1 | 99.2 | 
29 | Fc1ccccc1[Se]c1c(-c2ccccc2)ncc2ccccc12 | > 100 | 
30 | COc1ccc([Se]c2c(-c3ccccc3)ncc3cc(Cl)ccc23)cc1 | 93.3 | 
31 | Cc1cccc([Se]c2c(-c3ccccc3)ncc3ccccc23)c1 | 38 | 
32 | FC(F)(F)c1cccc([Se]c2c(-c3ccccc3)ncc3ccccc23)c1 | 47.2 | 
33 | COc1ccc([Se]c2c(-c3ccc4ccccc4c3)ncc3ccccc23)cc1 | > 100 | 
34 | COc1ccc([Se]c2cc(-c3ncc4ccccc4c3[Se]c3ccc(OC)cc3)cc([Se]c3ccc(OC)cc3)c2N)cc1 | > 100 | 
35 | COc1ccc([Se]c2c(-c3ccccc3)ncc3cc(C(F)(F)F)ccc23)cc1 | 42.6 | 
36 | Fc1cccc([Se]c2c(-c3ccccc3)ncc3ccccc23)c1 | > 100 | 
37 | c1ccc([Se]c2c(-c3ccccc3)ncc3ccccc23)cc1 | 61.6 | 
38 | COc1ccccc1[Se]c1c(-c2ccccc2)ncc2ccccc12 | 64.2 | 
39 | COc1ccc([Se]c2c(-c3ccccc3)ncc3cc(Br)ccc23)cc1 | 94.8 | 
40 | COc1ccc2c([Se]c3ccccc3)c(-c3ccccc3)ncc2c1 | 76.6 | 
41 | COc1ccc([Se]c2c(-c3ccccc3)ncc3cc4c(cc23)OCO4)cc1 | > 100 | 
42 | c1ccc([Se]c2c(-c3ccccc3)ncc3sccc23)cc1 | 65.6 | 
43 | Fc1ccc2c([Se]c3ccccc3)c(-c3ccccc3)ncc2c1 | > 100 | 
44 | Brc1ccc([Se]c2c(-c3ccccc3)ncc3ccccc23)cc1 | > 100 | 
45 | Fc1ccc(-c2ncc3ccccc3c2[Se]c2ccccc2)cc1 | > 100 | 
46 | Brc1ccc2c([Se]c3ccccc3)c(-c3ccccc3)ncc2c1 | 86.2 | 

Row | SMILES | IC50 [1] [µM] | other results
47 | Fc1ccc([Se]c2c(-c3ccccc3)ncc3ccccc23)cc1 | 20.3 | 
48 | CC[C@@]1(O)C(=O)OCc2c1cc1n(c2=O)Cc2cc3ccccc3nc2-1 [CAMPTOTHECIN] | 2.46 | Activity [5]: Active; Activity [21]: Toxic; inhibition [7]: Active; Activity [22]: Active; Activity [11]: 39.1%; inhibition [16]: Active; inhibition in vivo at 10 mg/kg [23]: 66%; Activity [24]: Active
49 | Clc1ccc(-c2ncc3ccccc3c2[Se]c2ccccc2)cc1 | > 100 | 
50 | c1ccc([Se]c2c(-c3ccc4ccccc4c3)ncc3ccccc23)cc1 | 54.8 | 
51 | Brc1c2ccccc2c(-c2ncc3ccccc3c2[Se]c2ccccc2)c2ccccc12 | > 100 | 
52 | Brc1ccc(-c2ncc3ccccc3c2[Se]c2ccccc2)cc1 | > 100 | 
53 | CCCCc1ncc2ccccc2c1[Se]c1ccc(OC)cc1 | > 100 | 
54 | Clc1ccccc1[Se]c1c(-c2ccccc2)ncc2ccccc12 | > 100 | 
55 | COc1ccc([Se]c2c(-c3ccccc3)ncc3ccccc23)cc1 | 6.39 | Activity [4]: inactive; Activity [5]: Active; Activity [6]: Non-toxic; inhibition [7]: Active; Activity [8]: inactive; Activity [9]: Active; inhibition [10]: Active; Activity [11]: 20.8%; Activity [12]: Active; Activity [13]: inactive; inhibition [14]: Active; hemolysis at 2 h, 100 µM [15]: < 1%; N-cadherin expression decrease (qualitative activity) [16]: Active; Activity [17]: Active; Activity [18]: Active; Activity [19]: Active; Activity [20]: Active
56 | COc1ccc([Se]c2c(-c3ccc(Br)cc3)ncc3ccccc23)cc1 | > 100 | 
57 | CC(C)(C)c1ncc2ccccc2c1[Se]c1ccccc1 | > 100 | 
58 | FC(F)(F)c1ccc2c([Se]c3ccccc3)c(-c3ccccc3)ncc2c1 | 51.9 | 
59 | C[Se]c1c(-c2ccccc2)ncc2ccccc12 | > 100 | 
60 | c1ccc([Se]c2c(-c3ccccc3)ncc3cc4c(cc23)OCO4)cc1 | 34.2 | 
61 | COc1ccc([Se]c2c(-c3ccsc3)ncc3ccccc23)cc1 | 44.5 | 
62 | COc1cc2cnc(-c3ccccc3)c([Se]c3ccccc3)c2cc1OC | 42.3 | 
63 | COc1ccc([Se]c2c(-c3ccccc3)ncc3cccc(F)c23)cc1 | 53.2 | 
64 | COc1ccc(-c2ncc3ccccc3c2[Se]c2ccccc2)cc1 | > 100 | 
65 | c1ccc([Se]c2c(-c3cc4ccccc4c4ccccc34)ncc3ccccc23)cc1 | > 100 | 
66 | N#Cc1ccccc1[Se]c1c(-c2ccccc2)ncc2ccccc12 | > 100 | 
67 | Cc1ccc([Se]c2c(-c3ccccc3)ncc3ccccc23)cc1 | 52 | 
68 | Cc1ccc2c([Se]c3ccccc3)c(-c3ccccc3)ncc2c1 | > 100 | 
69 | CC(C)(C)c1ccc(-c2ncc3ccccc3c2[Se]c2ccccc2)cc1 | 40.8 | 
